We go through eight compounds from PubChem BioAssay (NCI).

Some test systems named below: RPMI-8226 leukemia; RXF 393 renal; HCC-2998 colon; A549 NSCLC; M14 melanoma; PC-3 prostate; K-562 leukemia; ACHN renal; BT-549 breast; CCRF-CEM leukemia.
What all share (assay): inhibition of tumour cell growth, NCI panel, 48 h

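The compound was tested at five concentrations on cells cultured in 96-well plates, with a 48-hour exposure period. GI50: concentration for 50% inhibition of growth. Definition used: TGI = concentration required for complete inhibition of growth.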

As for `CCN1CCC(CC(=O)Nc2n[nH]c3nc(-c4cccs4)c(Br)cc23)CC1`, the GI50 was 9.42 µM in the assay on RPMI-8226 leukemia; 5.51 µM in the assay on RXF 393 renal; 12 µM in the assay on HCC-2998 colon; 8.82 µM in the assay on A549 NSCLC; 6.88 µM in the assay with M14 melanoma; 10.4 µM with PC-3 prostate. The GI50 in the assay with K-562 leukemia was 7.61 µM; in the assay with ACHN renal, 7.96 µM; with BT-549 breast, above 23 µM; with CCRF-CEM leukemia, 9.57 µM. The TGI with RPMI-8226 leukemia was 24.8 µM; in the assay with RXF 393 renal, 16.8 µM; in the assay on HCC-2998 colon it was above 25 µM; in the assay on A549 NSCLC, above 25 µM; in the assay with M14 melanoma it was 14.6 µM; in the assay with PC-3 prostate, above 25 µM. For the same compound, the TGI in the assay on K-562 leukemia was above 19.2 µM; with ACHN renal it was above 25 µM; with BT-549 breast, above 25 µM; in the assay on CCRF-CEM leukemia, above 25 µM.
On to `C=C(C)[C@@H]1CC[C@]2(C(=O)NCCNCCNCCN)CC[C@]3(C)[C@H](CC[C@@H]4[C@@]5(C)CCC(=O)C(C)(C)[C@@H]5CC[C@]43C)[C@@H]12`, for which the GI50 was 6.78 µM in the assay on RPMI-8226 leukemia; 5.6 µM with RXF 393 renal; 7.16 µM with HCC-2998 colon; 7.69 µM in the assay with A549 NSCLC; 8.38 µM in the assay with M14 melanoma; 6.26 µM with PC-3 prostate. The GI50 is 8.2 µM in the assay on K-562 leukemia, 13.8 µM in the assay on ACHN renal, 8.91 µM in the assay on BT-549 breast and 9.65 µM in the assay on CCRF-CEM leukemia. In addition, the TGI with RPMI-8226 leukemia amounted to 22 µM; in the assay with RXF 393 renal it was 12.5 µM; with HCC-2998 colon, 14.8 µM; with A549 NSCLC, 15.9 µM; in the assay with M14 melanoma, 19 µM; in the assay on PC-3 prostate, 13.1 µM. Also, the TGI in the assay with K-562 leukemia is 21.8 µM; with ACHN renal it was above 50 µM; in the assay on BT-549 breast it was 22.2 µM; with CCRF-CEM leukemia it was 27.8 µM.
Turning to `COc1ccc2c(c1)C(=O)c1c-2n(CCCN2CCOCC2)c(=O)c2cc([N+](=O)[O-])ccc12`, the GI50 in the assay on RPMI-8226 leukemia, in the assay with RXF 393 renal, in the assay with HCC-2998 colon, in the assay with A549 NSCLC, in the assay on M14 melanoma and in the assay with PC-3 prostate was below 0.01 µM each time. Further, the GI50 in the assay on K-562 leukemia, in the assay on ACHN renal, in the assay on BT-549 breast and in the assay with CCRF-CEM leukemia was below 0.01 µM in each case. The TGI is 0.147 µM with RPMI-8226 leukemia; 0.153 µM in the assay with HCC-2998 colon; 3.01 µM in the assay with A549 NSCLC; below 0.01 µM with M14 melanoma; above 31.9 µM in the assay with PC-3 prostate; above 37 µM in the assay with K-562 leukemia. The TGI was below 0.0108 µM in the assay on ACHN renal and 0.448 µM in the assay with BT-549 breast.
`COc1cc(/C=C2\C(=O)Nc3ccccc32)cc(OC)c1OC`: the GI50 was 12 µM in the assay on RPMI-8226 leukemia; 2.37 µM with RXF 393 renal; 12.4 µM in the assay with HCC-2998 colon; 20.3 µM with A549 NSCLC; 21.2 µM with M14 melanoma; 18.8 µM in the assay on PC-3 prostate. In addition, the GI50 in the assay with K-562 leukemia is 4.48 µM; in the assay on ACHN renal, 26.4 µM; in the assay on BT-549 breast it was 28.7 µM; in the assay on CCRF-CEM leukemia, 8.82 µM. Also, the TGI was 61.5 µM in the assay on RPMI-8226 leukemia; 10.6 µM in the assay with RXF 393 renal; 32.8 µM in the assay with HCC-2998 colon; above 100 µM with A549 NSCLC; 79.5 µM in the assay with M14 melanoma; above 100 µM in the assay on PC-3 prostate. Moreover, the TGI in the assay with K-562 leukemia, in the assay with ACHN renal, in the assay on BT-549 breast and with CCRF-CEM leukemia was above 100 µM throughout.
On to `O=C1C=CC(=O)c2c1ncc1c2nc2sccn21`, for which the GI50 with RPMI-8226 leukemia was 12.7 µM; in the assay with RXF 393 renal, 20.8 µM; in the assay with HCC-2998 colon it was 78.9 µM; with A549 NSCLC, 52.4 µM; with M14 melanoma, 15.7 µM; with PC-3 prostate, 15.2 µM. Moreover, the GI50 with K-562 leukemia is 30.1 µM; with ACHN renal it was 21.7 µM; in the assay with BT-549 breast, 12.4 µM; in the assay with CCRF-CEM leukemia, 2.07 µM. For the same compound, the TGI in the assay on RPMI-8226 leukemia is 47.4 µM; in the assay on RXF 393 renal, 64.8 µM; with HCC-2998 colon, above 100 µM; in the assay on A549 NSCLC it was above 100 µM; in the assay with M14 melanoma, 39.8 µM; in the assay with PC-3 prostate, 30.6 µM. Besides, the TGI in the assay on K-562 leukemia is above 100 µM; in the assay on ACHN renal, 39.6 µM; in the assay with BT-549 breast, 27.7 µM; with CCRF-CEM leukemia, 6.62 µM.
On to `Cc1ccccc1C(C(=O)NC1CCCCC1)N(C(=O)Cn1ccnc1C)c1cccc(F)c1` (stereo not drawn), for which the GI50 in the assay on RPMI-8226 leukemia was above 100 µM; in the assay with RXF 393 renal, 7.5 µM; with HCC-2998 colon, above 100 µM; in the assay with A549 NSCLC, above 100 µM; in the assay on M14 melanoma it was above 100 µM; with PC-3 prostate it was above 100 µM. Further, the GI50 with K-562 leukemia is above 100 µM; in the assay with ACHN renal, above 58.7 µM; in the assay with BT-549 breast, above 52.6 µM; in the assay on CCRF-CEM leukemia, above 100 µM. Moreover, the TGI is above 100 µM in the assay with RPMI-8226 leukemia; 40.5 µM with RXF 393 renal; above 100 µM in the assay with HCC-2998 colon; above 100 µM in the assay on A549 NSCLC; above 100 µM in the assay on M14 melanoma; above 100 µM in the assay on PC-3 prostate. Besides, the TGI with K-562 leukemia, with ACHN renal, in the assay with BT-549 breast and with CCRF-CEM leukemia was above 100 µM throughout.
`CNCCOC(=O)/C=C1/CCC2C(C(O)CC3C(C)(C(=O)OC)CCCC23C)C1C` (stereo not drawn): the GI50 in the assay with RPMI-8226 leukemia was 0.0248 µM; in the assay on RXF 393 renal it was 0.0156 µM; in the assay with HCC-2998 colon, 0.0329 µM; in the assay with A549 NSCLC it was below 0.01 µM; in the assay with M14 melanoma it was 0.0202 µM; with PC-3 prostate, 0.0214 µM. Besides, the GI50 in the assay on K-562 leukemia is 0.0308 µM; in the assay on ACHN renal, below 0.01 µM; in the assay with BT-549 breast, 0.0242 µM; in the assay on CCRF-CEM leukemia it was 0.0138 µM. In addition, the TGI in the assay with RPMI-8226 leukemia was found to be 0.0657 µM; in the assay on RXF 393 renal, 0.0521 µM; in the assay with HCC-2998 colon, 0.115 µM; with A549 NSCLC, 0.0116 µM; with M14 melanoma it was 0.0424 µM; in the assay on PC-3 prostate, 0.202 µM. Besides, the TGI in the assay with K-562 leukemia worked out at 0.0953 µM; in the assay with ACHN renal, 0.0173 µM; in the assay on BT-549 breast, 0.064 µM; in the assay with CCRF-CEM leukemia, 0.0518 µM.
For `CC(C)=CC1CC(C)C2(CCC3(C)CC4C(C(=O)CC4(C)O)/C(C=O)=C\CC32)O1` (stereo not drawn), the TGI with RPMI-8226 leukemia was determined as 0.0613 µM; in the assay on RXF 393 renal, 0.098 µM; with HCC-2998 colon, 0.328 µM; in the assay on A549 NSCLC, 0.215 µM; in the assay on M14 melanoma it was 0.311 µM; with PC-3 prostate it was 0.14 µM. In addition, the TGI came out at 0.232 µM in the assay with K-562 leukemia, 0.115 µM in the assay on ACHN renal, 0.351 µM in the assay with BT-549 breast and 0.0422 µM with CCRF-CEM leukemia.
